According to ChEMBL document CHEMBL1201862, “PubChem BioAssay data set” (2004):
Each block holds one molecule with its values, some of them ahead of it. Calls of active or inactive are those of the source.

Experiments:
Phosphomannomutase 2 = Phosphomannomutase 2 (Homo sapiens, UniProt O15305); test: Counter screen SAR assay for PMM2 inhibitors via a fluorescence intensity assay. [Related pubchem assays (depositor defined):AID1545, AID1574]
[1] = biological target: T1, DNA dC->dU-editing enzyme APOBEC-3G (Homo sapiens, UniProt Q9HC16); test: Dose Response confirmation of small molecule APOBEC3G DNA Deaminase Inhibitors via a fluorescence-based single-stranded DNA deaminase assay. [Related pubchem assays (depositor defined):AID493012, AID493028]; type: functional
[2] = biological target: T2, DNA dC->dU-editing enzyme APOBEC-3A (Homo sapiens, UniProt P31941); test: SAR analysis of small molecule inhibitors of APOBEC3A DNA Deaminase via a fluorescence-based single-stranded DNA deaminase assay.; type: functional; conditions: read-out: IC50_Mean
[3] = biological target: T1, DNA dC->dU-editing enzyme APOBEC-3G; test: SAR analysis of small molecule inhibitors of APOBEC3G DNA Deaminase via a fluorescence-based single-stranded DNA deaminase assay - Set 2.; type: functional; conditions: read-out: IC50_Mean
Leucine aminopeptidase = biological target: T3, Leucine aminopeptidase (Plasmodium falciparum 3D7, UniProt Q8IL11); test: P. falciparum M17LAP inhibitors, primary screen, biochemical, fluorogenic H-Leu-NHMec substrate, 1536-well (AID 1619); type: functional
T3 sequence (Q8IL11 whole entry): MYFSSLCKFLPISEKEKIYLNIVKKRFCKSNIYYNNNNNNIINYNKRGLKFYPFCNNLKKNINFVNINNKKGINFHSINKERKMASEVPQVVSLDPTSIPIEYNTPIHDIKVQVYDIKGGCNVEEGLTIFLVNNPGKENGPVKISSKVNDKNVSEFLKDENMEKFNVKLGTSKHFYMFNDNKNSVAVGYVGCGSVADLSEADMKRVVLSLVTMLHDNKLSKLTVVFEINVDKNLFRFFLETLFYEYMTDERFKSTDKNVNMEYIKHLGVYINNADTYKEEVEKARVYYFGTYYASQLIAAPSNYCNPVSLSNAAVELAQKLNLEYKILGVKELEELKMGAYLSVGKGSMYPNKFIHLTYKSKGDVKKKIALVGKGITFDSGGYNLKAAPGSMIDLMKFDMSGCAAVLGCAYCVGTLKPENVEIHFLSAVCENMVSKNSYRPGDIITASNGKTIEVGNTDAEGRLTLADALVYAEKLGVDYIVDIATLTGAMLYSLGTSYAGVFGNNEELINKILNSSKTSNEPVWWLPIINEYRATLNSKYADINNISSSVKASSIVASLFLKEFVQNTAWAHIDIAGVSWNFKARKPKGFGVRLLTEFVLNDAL

[4] = biological target: T2, DNA dC->dU-editing enzyme APOBEC-3A; test: A3A deaminase inhibition for selectivity – biochemical, dose response (AID 504722); type: functional
[5] = biological target: FAD-linked sulfhydryl oxidase ALR (Homo sapiens, UniProt P55789); test: ALR-catalysed DTT oxidation blockers – biochemical, H2O2 detection, luminescence, cherry-pick, dose response (AID 493248)
[6] = biological target: T4, Mannose-6-phosphate isomerase (Homo sapiens, UniProt P34949); test: phosphomannose isomerase inhibition – biochemical, fluorescence intensity, confirmation (AID 1535)
T4 sequence (P34949 whole entry): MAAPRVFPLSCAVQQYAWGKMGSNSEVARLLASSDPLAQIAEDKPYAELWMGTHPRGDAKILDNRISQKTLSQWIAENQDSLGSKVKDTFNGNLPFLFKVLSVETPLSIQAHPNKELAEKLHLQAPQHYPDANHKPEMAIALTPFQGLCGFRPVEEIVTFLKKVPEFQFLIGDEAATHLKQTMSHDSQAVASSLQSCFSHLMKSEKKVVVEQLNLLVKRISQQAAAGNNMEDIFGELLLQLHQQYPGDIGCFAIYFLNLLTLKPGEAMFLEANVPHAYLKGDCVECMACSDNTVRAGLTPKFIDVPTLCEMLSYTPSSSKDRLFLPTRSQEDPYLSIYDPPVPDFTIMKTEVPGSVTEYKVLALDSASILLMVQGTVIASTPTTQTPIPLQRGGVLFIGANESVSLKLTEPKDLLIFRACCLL

[7] = biological target: T2, DNA dC->dU-editing enzyme APOBEC-3A; test: SAR analysis of small molecule inhibitors of APOBEC3A DNA Deaminase via a fluorescence-based single-stranded DNA deaminase assay - Set 2.; type: functional; conditions: read-out: IC50_Mean
[8] = biological target: Luciferin 4-monooxygenase (Photinus pyralis, UniProt P08659); test: inhibition of purified Photinus pyralis luciferase – biochemical, luminescence, dose response (AID 1891)
[9] = biological target: T1, DNA dC->dU-editing enzyme APOBEC-3G; test: inhibition of APOBEC3G ssDNA deamination – biochemical, fluorescence, single-stranded DNA substrate, SAR follow-up (AID 602136); type: functional; conditions: read-out: IC50_Mean
[10] = biological target: T5, Ubiquitin-conjugating enzyme E2 N (Homo sapiens, UniProt P61088); type: functional;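 note: Dose-response confirmation in a TR-FRET assay detecting UBC13-driven polyubiquitin chain formation, inhibition measured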
T5 sequence (P61088 whole entry): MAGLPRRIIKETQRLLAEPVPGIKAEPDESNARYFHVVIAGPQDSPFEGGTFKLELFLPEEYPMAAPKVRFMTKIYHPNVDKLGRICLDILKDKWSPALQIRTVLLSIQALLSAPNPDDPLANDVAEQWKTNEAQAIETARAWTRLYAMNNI

[11] = biological target: T6, High affinity choline transporter 1 (Homo sapiens, UniProt Q9GZV3); test: human choline transporter potentiators, potency – cell-based, 10-point CRC, membrane potential dye, dose response (AID 602376); type: functional
T6 sequence (Q9GZV3 whole entry): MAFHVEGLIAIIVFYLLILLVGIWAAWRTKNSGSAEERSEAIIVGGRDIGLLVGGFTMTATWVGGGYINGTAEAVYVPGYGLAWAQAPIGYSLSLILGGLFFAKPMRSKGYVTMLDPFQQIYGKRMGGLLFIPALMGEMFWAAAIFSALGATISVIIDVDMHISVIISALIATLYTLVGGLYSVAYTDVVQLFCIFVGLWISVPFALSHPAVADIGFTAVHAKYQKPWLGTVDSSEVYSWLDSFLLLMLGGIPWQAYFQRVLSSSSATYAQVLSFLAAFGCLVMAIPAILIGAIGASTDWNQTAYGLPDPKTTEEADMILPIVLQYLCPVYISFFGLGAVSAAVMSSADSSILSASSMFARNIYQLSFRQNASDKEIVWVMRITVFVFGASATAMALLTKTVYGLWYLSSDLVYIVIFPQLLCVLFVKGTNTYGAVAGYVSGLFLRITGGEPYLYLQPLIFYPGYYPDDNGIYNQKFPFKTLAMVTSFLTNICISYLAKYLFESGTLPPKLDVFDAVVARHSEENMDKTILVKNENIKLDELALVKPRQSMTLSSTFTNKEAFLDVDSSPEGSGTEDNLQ

[12] = biological target: 26S proteasome non-ATPase regulatory subunit 14 (Homo sapiens, UniProt O00487); test: inhibition of proteasome subunit RPN11 – biochemical, fluorescence polarization, uHTS hits, confirmation (AID 602368); type: functional
[13] = biological target: 72 kDa type IV collagenase (Homo sapiens, UniProt P08253); test: Dose Response validation of uHTS RPN11 inhibitor hits using a MMP-2 Fluorescence assay.; type: functional
Prothrombin = Prothrombin (Bos taurus, UniProt P00735); test: thrombin protease inhibitors – biochemical, fluorescence polarization, uHTS hits, dose response (AID 602369); type: functional
[14] = biological target: Multidrug resistance protein CDR1 (Candida albicans, UniProt P43071); test: inhibition of Nile Red efflux via Candida CDR1 – S. cerevisiae AD1-8u, singleplex, Cherry Pick1 hits, dose response (AID 588606); type: functional
INS1 [15] = test: INS-1E mitochondrial potential rescue under cytokines – cell-based, JC-1 fluorescence ratio, dry powder, dose response (AID 488931); type: functional; conditions: Rattus norvegicus
INS1 [16] = test: suppression of NO production in INS-1E cells – cell-based, Griess absorbance, dry powder, set 2, dose response (AID 488868); type: functional; conditions: Rattus norvegicus
INS1 [17] = test: beta-cell survival under cytokine stress – INS-1E, ATP luminescence, dry powder, dose response (AID 488844); type: functional, cell-based; conditions: Rattus norvegicus
[18] = suppression of NO production in INS-1E cells – cell-based, Griess absorbance, dry powder, set 3, dose response (AID 488870); type: functional; conditions: Rattus norvegicus
[19] = biological target: Serine/threonine-protein kinase D3 (Homo sapiens, UniProt O94806); type: functional;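 note: determined within a kinase panel screen, with PRKCN as the panel member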
[20] = biological target: Casein kinase I isoform delta (Homo sapiens, UniProt P48730); type: functional;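 note: measured as one member (CSNK1D) of a kinome panel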
[21] = biological target: Mitogen-activated protein kinase kinase kinase kinase 4 (Homo sapiens, UniProt O95819); type: functional
[22] = biological target: Serine/threonine-protein kinase PLK1 (Homo sapiens, UniProt P53350); type: functional;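 note: PLK1 measured as one member of a kinome-wide profiling panel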
[23] = biological target: Ribosomal protein S6 kinase beta-1 (Homo sapiens, UniProt P23443); type: functional;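 note: measured as one member of a kinome-wide profiling panel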
[24] = biological target: Serine/threonine-protein kinase Nek2 (Homo sapiens, UniProt P51955); type: functional
[25] = biological target: Serine/threonine-protein kinase PLK3 (Homo sapiens, UniProt Q9H4B4); type: functional
[26] = biological target: Dual specificity tyrosine-phosphorylation-regulated kinase 1A (Homo sapiens, UniProt Q13627); type: functional;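 note: measured against DYRK1A as one member of a broad kinome profiling panel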
[27] = biological target: Vascular endothelial growth factor receptor 3 (Homo sapiens, UniProt P35916); type: functional;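 note: value from a kinome-wide profiling panel, with FLT4 as the panel member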
[28] = biological target: Dual specificity tyrosine-phosphorylation-regulated kinase 1B (Homo sapiens, UniProt Q9Y463); test: Navigating the Kinome. Panel member name: DYRK1B; type: functional
Aurora kinase B = Aurora kinase B (Homo sapiens, UniProt Q96GD4); type: functional
[29] = biological target: Casein kinase I isoform alpha (Homo sapiens, UniProt P48729); type: functional
[30] = biological target: Platelet-derived growth factor receptor alpha (Homo sapiens, UniProt P16234); test: Navigating the Kinome. Panel member name: PDGFRA; type: functional
[31] = biological target: Cyclin-dependent kinase 7 (Homo sapiens, UniProt P50613); type: functional;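 note: value comes from a kinome-wide kinase profiling panel in which CDK7 is one member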
[32] = biological target: Tyrosine-protein kinase BTK (Homo sapiens, UniProt Q06187); type: functional
[33] = biological target: Tyrosine-protein kinase ABL1 (Homo sapiens, UniProt P00519); type: functional
[34] = biological target: Dual specificity protein kinase CLK4 (Homo sapiens, UniProt Q9HAZ1); type: functional
[35] = biological target: Mitogen-activated protein kinase kinase kinase kinase 2 (Homo sapiens, UniProt Q12851); type: functional;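 note: measured as one member of a kinome-wide kinase panel, with MAP4K2 as the panel entry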
[36] = biological target: Inhibitor of nuclear factor kappa-B kinase subunit epsilon (Homo sapiens, UniProt Q14164); test: Navigating the Kinome. Panel member name: IKBKE; type: functional
Focal adhesion kinase 1 = Focal adhesion kinase 1 (Homo sapiens, UniProt Q05397); type: functional;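 note: measured as one member of a kinome panel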
[37] = biological target: Macrophage colony-stimulating factor 1 receptor (Homo sapiens, UniProt P07333); type: functional;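 note: value comes from the Navigating the Kinome screening panel, CSF1R member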
[38] = biological target: Mitogen-activated protein kinase 8 (Homo sapiens, UniProt P45983); type: functional;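 note: value comes from one member of a kinome-wide kinase profiling panel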
[39] = biological target: Serine/threonine-protein kinase PAK 4 (Homo sapiens, UniProt O96013); type: functional;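 note: value obtained within a kinome profiling panel in which PAK4 was one of the panel members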
Activin receptor type-1 = Activin receptor type-1 (Homo sapiens, UniProt Q04771); test: Navigating the Kinome. Panel member name: ACVR1; type: functional
[40] = biological target: Tyrosine-protein kinase receptor TYRO3 (Homo sapiens, UniProt Q06418); type: functional;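 note: TYRO3 value obtained as one member of a kinome-wide profiling panel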

T1 sequence (Q9HC16 whole entry): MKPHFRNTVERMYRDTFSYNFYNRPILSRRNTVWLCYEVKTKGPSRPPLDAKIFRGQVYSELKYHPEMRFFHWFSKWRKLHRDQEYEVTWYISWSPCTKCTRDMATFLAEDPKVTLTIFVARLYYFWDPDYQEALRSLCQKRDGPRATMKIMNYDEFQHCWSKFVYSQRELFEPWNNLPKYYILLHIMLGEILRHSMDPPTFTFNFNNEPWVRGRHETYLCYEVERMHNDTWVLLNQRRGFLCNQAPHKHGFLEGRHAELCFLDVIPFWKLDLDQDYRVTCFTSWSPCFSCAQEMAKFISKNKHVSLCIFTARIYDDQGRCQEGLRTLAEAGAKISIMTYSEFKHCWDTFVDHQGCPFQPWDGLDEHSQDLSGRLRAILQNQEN
T2 sequence (P31941 whole entry): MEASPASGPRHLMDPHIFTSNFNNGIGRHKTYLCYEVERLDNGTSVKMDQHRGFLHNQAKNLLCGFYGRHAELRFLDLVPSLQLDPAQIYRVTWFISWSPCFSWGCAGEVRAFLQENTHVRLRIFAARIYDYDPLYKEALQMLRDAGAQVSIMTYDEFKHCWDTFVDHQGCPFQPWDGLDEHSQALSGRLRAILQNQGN
Sequence of Mitogen-activated protein kinase kinase kinase kinase 4 (O95819 whole entry): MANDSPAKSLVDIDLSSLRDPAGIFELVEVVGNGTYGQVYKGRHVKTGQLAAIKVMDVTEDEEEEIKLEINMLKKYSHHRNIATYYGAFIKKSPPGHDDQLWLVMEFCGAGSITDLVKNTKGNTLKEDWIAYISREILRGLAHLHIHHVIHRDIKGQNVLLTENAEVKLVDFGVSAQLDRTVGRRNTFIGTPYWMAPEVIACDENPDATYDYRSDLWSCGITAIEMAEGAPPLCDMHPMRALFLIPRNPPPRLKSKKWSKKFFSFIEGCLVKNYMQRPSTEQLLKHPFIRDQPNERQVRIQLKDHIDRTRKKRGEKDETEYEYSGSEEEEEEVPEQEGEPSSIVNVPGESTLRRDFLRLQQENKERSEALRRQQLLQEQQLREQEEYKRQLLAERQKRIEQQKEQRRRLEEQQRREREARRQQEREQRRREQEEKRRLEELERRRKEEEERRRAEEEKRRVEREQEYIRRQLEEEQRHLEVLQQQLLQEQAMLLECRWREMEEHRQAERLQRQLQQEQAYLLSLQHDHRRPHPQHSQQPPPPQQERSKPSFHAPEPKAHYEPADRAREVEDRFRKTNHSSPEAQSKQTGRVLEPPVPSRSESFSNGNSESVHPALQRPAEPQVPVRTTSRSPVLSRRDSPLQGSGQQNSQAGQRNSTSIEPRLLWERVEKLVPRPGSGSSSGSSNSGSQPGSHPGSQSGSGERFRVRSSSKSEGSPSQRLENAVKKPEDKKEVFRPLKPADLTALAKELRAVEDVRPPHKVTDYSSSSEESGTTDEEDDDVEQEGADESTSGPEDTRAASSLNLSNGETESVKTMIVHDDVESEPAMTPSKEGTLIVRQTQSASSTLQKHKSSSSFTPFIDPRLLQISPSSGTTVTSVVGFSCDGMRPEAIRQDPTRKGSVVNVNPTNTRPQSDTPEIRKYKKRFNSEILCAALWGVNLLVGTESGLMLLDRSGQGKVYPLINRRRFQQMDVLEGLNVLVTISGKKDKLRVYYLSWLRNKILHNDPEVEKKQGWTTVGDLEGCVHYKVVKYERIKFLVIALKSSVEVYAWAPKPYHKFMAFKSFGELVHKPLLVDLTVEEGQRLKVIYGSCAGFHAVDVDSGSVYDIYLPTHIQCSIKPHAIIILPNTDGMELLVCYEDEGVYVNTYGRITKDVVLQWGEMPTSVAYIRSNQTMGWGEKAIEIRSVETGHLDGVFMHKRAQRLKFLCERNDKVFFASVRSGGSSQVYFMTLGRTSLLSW
Sequence of Dual specificity tyrosine-phosphorylation-regulated kinase 1B (Q9Y463 whole entry): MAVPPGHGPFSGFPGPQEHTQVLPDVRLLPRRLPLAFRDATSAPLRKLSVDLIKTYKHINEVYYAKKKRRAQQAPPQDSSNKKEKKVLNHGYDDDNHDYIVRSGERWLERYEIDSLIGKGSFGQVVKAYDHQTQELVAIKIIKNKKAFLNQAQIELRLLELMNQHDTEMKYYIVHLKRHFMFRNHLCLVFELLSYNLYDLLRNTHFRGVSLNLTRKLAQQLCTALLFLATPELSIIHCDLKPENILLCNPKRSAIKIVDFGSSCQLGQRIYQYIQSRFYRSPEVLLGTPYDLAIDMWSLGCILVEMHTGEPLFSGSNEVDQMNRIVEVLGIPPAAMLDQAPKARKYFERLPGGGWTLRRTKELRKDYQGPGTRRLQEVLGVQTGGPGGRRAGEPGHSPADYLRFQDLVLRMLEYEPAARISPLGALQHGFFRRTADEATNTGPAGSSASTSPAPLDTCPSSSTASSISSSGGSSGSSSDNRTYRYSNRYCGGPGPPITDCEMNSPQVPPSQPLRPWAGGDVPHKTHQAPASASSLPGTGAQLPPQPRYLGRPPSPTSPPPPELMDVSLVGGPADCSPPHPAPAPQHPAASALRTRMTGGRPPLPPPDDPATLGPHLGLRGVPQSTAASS
Sequence of Casein kinase I isoform alpha (P48729 whole entry, canonical isoform): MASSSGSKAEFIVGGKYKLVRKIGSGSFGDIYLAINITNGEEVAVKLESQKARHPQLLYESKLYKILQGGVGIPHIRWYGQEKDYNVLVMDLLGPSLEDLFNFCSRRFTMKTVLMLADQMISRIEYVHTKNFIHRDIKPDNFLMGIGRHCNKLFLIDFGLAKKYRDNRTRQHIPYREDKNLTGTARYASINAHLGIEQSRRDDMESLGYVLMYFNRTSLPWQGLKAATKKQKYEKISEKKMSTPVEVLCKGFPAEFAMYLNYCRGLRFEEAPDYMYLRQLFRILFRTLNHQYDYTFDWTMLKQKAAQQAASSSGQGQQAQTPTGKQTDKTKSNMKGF
Sequence of Mitogen-activated protein kinase kinase kinase kinase 2 (Q12851 whole entry): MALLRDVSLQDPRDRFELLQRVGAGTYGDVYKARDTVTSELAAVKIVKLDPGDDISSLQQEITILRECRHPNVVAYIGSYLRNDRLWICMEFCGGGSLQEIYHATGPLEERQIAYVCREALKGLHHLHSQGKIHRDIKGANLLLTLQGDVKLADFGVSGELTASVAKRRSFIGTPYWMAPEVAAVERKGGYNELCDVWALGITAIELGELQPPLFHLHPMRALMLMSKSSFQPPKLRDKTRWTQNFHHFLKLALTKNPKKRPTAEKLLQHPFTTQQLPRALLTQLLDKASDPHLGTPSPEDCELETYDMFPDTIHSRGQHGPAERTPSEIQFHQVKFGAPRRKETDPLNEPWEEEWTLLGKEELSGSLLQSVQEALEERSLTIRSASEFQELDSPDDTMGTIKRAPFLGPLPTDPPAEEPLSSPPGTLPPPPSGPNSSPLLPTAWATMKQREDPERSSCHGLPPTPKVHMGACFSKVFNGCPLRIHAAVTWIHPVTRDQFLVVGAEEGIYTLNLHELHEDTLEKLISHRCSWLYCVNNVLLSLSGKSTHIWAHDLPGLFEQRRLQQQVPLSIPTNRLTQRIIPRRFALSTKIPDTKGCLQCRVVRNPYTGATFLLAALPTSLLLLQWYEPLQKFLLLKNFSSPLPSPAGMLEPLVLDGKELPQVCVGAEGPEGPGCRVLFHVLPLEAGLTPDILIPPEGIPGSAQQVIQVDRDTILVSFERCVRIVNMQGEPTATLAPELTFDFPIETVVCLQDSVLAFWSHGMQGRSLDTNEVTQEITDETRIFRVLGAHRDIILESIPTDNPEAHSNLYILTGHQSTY
Sequence of Dual specificity protein kinase CLK4 (Q9HAZ1 whole entry): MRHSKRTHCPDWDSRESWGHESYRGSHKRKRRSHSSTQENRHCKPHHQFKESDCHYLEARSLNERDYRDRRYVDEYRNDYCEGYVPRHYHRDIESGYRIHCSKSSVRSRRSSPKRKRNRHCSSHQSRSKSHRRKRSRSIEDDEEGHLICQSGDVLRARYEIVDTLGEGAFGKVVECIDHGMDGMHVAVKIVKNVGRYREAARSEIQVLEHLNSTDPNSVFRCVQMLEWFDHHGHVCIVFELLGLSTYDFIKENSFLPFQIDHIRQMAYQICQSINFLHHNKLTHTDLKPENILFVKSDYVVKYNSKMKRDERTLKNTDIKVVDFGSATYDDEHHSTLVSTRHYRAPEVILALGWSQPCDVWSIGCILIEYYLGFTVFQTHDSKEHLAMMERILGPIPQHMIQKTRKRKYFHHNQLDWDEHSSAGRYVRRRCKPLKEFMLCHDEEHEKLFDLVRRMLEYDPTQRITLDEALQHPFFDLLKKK
Sequence of Serine/threonine-protein kinase PAK 4 (O96013 whole entry): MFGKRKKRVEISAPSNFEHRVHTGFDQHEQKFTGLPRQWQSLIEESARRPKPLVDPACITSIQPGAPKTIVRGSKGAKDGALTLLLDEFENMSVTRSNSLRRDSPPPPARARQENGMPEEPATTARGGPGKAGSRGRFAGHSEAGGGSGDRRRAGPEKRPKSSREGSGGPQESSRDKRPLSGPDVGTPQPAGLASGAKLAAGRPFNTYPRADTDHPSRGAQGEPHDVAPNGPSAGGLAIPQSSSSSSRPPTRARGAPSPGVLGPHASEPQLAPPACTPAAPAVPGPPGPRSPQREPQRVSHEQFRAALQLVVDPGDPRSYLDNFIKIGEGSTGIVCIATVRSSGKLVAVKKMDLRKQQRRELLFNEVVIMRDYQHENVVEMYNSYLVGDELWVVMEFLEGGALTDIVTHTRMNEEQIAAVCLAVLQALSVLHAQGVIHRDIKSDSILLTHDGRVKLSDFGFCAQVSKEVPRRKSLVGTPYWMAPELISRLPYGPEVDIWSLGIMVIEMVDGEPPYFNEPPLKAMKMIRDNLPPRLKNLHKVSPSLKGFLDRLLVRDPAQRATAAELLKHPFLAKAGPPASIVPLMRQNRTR
Sequence of Phosphomannomutase 2 (O15305 whole entry): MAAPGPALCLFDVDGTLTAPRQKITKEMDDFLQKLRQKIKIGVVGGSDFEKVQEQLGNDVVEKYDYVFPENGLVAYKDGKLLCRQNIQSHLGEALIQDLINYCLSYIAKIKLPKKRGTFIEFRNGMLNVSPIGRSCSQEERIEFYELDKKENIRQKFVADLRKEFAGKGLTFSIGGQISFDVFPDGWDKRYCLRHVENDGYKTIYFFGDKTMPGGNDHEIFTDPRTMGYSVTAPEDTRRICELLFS

SMILES: COc1ccc(-c2nnc(S)[nH]2)cc1
IC50 (Phosphomannomutase 2): > 100 µM (inactive)
IC50 [1]: 1.95 µM (active)
IC50 [2]: > 99 µM (inactive)
IC50 [3]: 1.22 µM (active)
IC50 (Leucine aminopeptidase): 39.5 µM (active)
IC50 [4]: > 100 µM (inactive)
AC50 [5]: 0.008 µM (active)
IC50 [6]: 50.1 µM (active)
IC50 [7]: > 99 µM (inactive)
EC50 [8]: > 112 µM (not active)
IC50 [9]: 1.19 µM (active)

SMILES: O=C(CCC1CCCCC1)NCCN1C2=NC[C@H](Cc3ccccc3)N2C[C@H]1Cc1ccc(O)cc1
IC50 [10]: > 20 µM (inactive)
EC50 [11]: 13.4 µM (active)

SMILES: CCc1c(O)n(C2CCCCC2)c(SCC(=O)Nc2ccc(C)cc2)nc1=O
IC50 [12]: 38.3 µM (active)
IC50 [13]: 20.6 µM (active)
IC50 (Prothrombin): 45.4 µM (active)

SMILES: Cc1ccc(OCc2cc(C(=O)NCC(C)(C)N3CCOCC3)no2)cc1C
EC50 [14]: 0.001 µM (active)

SMILES: C[C@@H]1CN([C@@H](C)CO)C(=O)c2cccc(NC(=O)Nc3cccc(Cl)c3Cl)c2O[C@H]1CN(C)S(=O)(=O)c1ccc2c(c1)OCCO2
AC50 (INS1 [15]): 71.3 µM (active)
AC50 (INS1 [16]): 29.3 µM (active)
AC50 (INS1 [17]): 15.2 µM (active)
AC50 [18]: 68.8 µM (active)

SMILES: CCn1c(=C(C#N)C(=O)O)sc(=CNc2ccccc2)c1=O
Ki [22]: 1.58 µM (active)
Ki [23]: 6.31 µM (active)
Ki [24]: 5.01 µM (active)
Ki [25]: 5.01 µM (active)
Ki [26]: 1.58 µM (active)
Ki [27]: 1.58 µM (active)

Further lines, results first:

Ki [19]: 5.01 µM (active)
Ki [20]: 2.51 µM (active)
Ki [21]: 3.16 µM (active)
SMILES: CC(C)(O)c1nnc2ccc(-c3c(-c4ccc(F)cc4F)nc4occn34)nn12

Ki [28]: 79.4 µM (active)
Ki (Aurora kinase B): 25.1 µM (active)
Ki [29]: 39.8 µM (active)
Ki [30]: 15.8 µM (active)
Ki [31]: 20 µM (active)
Ki [32]: 50.1 µM (active)
Ki [33]: 63.1 µM (active)
Ki [34]: 63.1 µM (active)
Ki [35]: 12.6 µM (active)
SMILES: Clc1cc2nnc(-c3ccccc3)n2cn1

Ki [36]: 63.1 µM (active)
Ki [28]: 31.6 µM (active)
Ki [29]: 25.1 µM (active)
Ki (Focal adhesion kinase 1): 100 µM (active)
Ki [21]: 50.1 µM (active)
Ki [37]: 100 µM (active)
Ki [38]: 50.1 µM (active)
Ki [39]: 25.1 µM (active)
Ki (Activin receptor type-1): 39.8 µM (active)
Ki [40]: 50.1 µM (active)
Ki [26]: 50.1 µM (active)
Ki [34]: 15.8 µM (active)
Ki [35]: 79.4 µM (active)
SMILES: Nc1nc2ncc(-c3ccccc3)cn2n1
